# Reference: US20070202079A1, “Therapeutic compositions and methods useful in modulating protein tyrosine phosphatases” (priority 2006, published 2007)
# Experiments:
# Renca cells = assay: Renca cell growth, MTT; assay type: cell-based, murine; details: SSG 6.25-200 μg/ml, 6 days; listed as SSG
# Excerpt: Renca (Murphy, G. P., and W. J. Hrushesky. 1973. A murine renal cell carcinoma. J Natl Cancer Inst 50:1013), Jurkat (Gillis, S., and J. Watson. 1980. Biochemical and biological characterization of lymphocyte regulatory molecules. V. Identification of an interleukin 2-producing human leukemia T cell line. J Exp Med 152:1709) and WM9 (Forsberg, K., I. Valyi-Nagy, C. H. Heldin, M. Herlyn, and B. Westermark. 1993. Platelet-derived growth factor (PDGF) in oncogenesis: development of a vascular connective tissue stroma in xenotransplanted human melanoma producing PDGF-BB. Proc Natl Acad Sci USA 90:393) cell lines were obtained from a colleague at the Cleveland Clinic Foundation (CCF) and cultured in RPMI 1640 medium supplemented with 10% fetal calf serum (FCS). Recombinant IL-2 (Proleukin, 22 million IU/1.3 mg, Chiron, Emeryville, Calif.) was purchased from the CCF pharmacy. […] For cell growth inhibition assays, cells were cultured in absence or presence of various amounts of SSG for 6 days with viable cells quantified by MTT assays as described elsewhere (Pathak, M. K., and T. Yi. 2001. Sodium stibogluconate is a potent inhibitor of protein tyrosine phosphatases and augments cytokine responses in hemopoietic cell lines. J Immunol 167:3391).
# [1] = system: Jak2/Stat5 tyrosine phosphorylation in Baf3 cells; assay: cellular protein tyrosine phosphorylation in Baf3 cells, Western blotting; assay type: cell-based, murine
# Method: For induction of cellular protein phosphorylation by sodium stibogluconate or pervanadate, Baf3 cells were incubated in 0.1% FCS-RPMI 1640 medium at 37° C. for 16 hours. The cells were then washed twice in RPMI 1640 medium and incubated with sodium stibogluconate or pervanandate (0.1 mM) for various times prior to termination by lysing cells in cold lysis buffer (50 mM Tris, pH 7.4; 150 mM NaCl; 0.2 mM Na3VO4; 20 mm NaF; 1% Nonidet P-40; 2 mM PMSF; 20 μg/ml of Aprotinin and 1 mM of sodium molybdic acid). To determine the effect of sodium stibogluconate or potassium antimonyl tartrate on IL-3-induced Jak/Stat phosphorylation, Baf3 cells were deprived of the growth factor for 16 hours in 0.1% FCS RPMI 1640 medium and then incubated with or without sodium stibogluconate or potassium antimonyl tartrate for 10 minutes. IL-3 was next added to the cell suspension and incubated for various times. The Cells were then harvested and lysed in cold lysis buffer at 4° C. for 45 minutes. Total cell lysates (TCL) were separated in SDS-PAGE gels, blotted onto nitrocellulose membrane (Schleicher & Schuell), probed with specific antibodies and detected using an enhanced chemiluminescence kit (ECL, Amersham, Arlington Heights, Ill.).
# [2] = system: human prostate carcinoma DU145 xenografts; assay: DU145 xenografts in nude mice; assay type: in vivo; details: daily 440 mg/kg
# Method: Nude mice bearing WM9 or DU145 xenografts were treated with IFN-alpha (500,000 U, s.c., daily), sodium stibogluconate (12 mg Sb, s.c., daily) or both. […] The dosage of sodium stibogluconate corresponds to approximately 440 mg Sb/kg body weight (average mouse body weight 27 g), substantially higher than the standard therapeutic dose of 20 mg Sb/kg and the high dose (143 mg Sb/kg) that was clinically used by accident without serious toxicity. This dose of sodium stibogluconate was based on a previous observation in a pilot study that mice could tolerate daily dose of 20 mg Sb (approximately 700-800 mg Sb/kg). […]
# For each of the cell lines, each of 16 mice received subcutaneous injection at the chest area of 3×10^6 cells/site (WM9) or 2×10^6 cells/site (DU145), two sites/mouse, on day 0. […] Tumor size was measured with a caliper to determine the two perpendicular diameters of each tumor. Tumor volume was calculated using the method of the NCI (length×width 2 in millimeters/2=volume in cubic millimeters).
# Athymic nude mice (nu/nu, NCR), 4 weeks old (Taconic), were inoculated (s.c.) in the flanks with DU145 cells (3×10^6 cells/site) on day 0. […] Tumor volume was measured and calculated using the formula for a prolate spheroid (V=4/3 7 a^2b) (Lindner, et al. 1997). […]
# Baf3 cells = assay: Baf3 cell proliferation assay; assay type: cell-based, murine
# Method: The murine hematopoietic cell line Baf3 was maintained in RPMI 1640 medium supplemented with 10% fetal calf serum (FCS) and murine IL-3 (20 units/ml) as described previously in Damen et al., J. Biol. Chem. 270, 23402 (1995). Human myeloid cell line TF-1 was maintained in RPMI 1640 supplemented with 10% FCS and 40 ng/ml of recombinant human GM-CSF as described previously in Thomassen et al., Clin. Immunol. 95, 85 (2000). For cell proliferation assays, cells were washed in 10% FCS medium twice, resuspended in 10% FCS medium, incubated at 37° C. for 16 hours, and then cultured at 37° C. in 10% FCS medium containing various amounts of cytokines, sodium stibogluconate, or potassium antimonyl tartrate for 3-6 days as indicated. The cell numbers in proliferation assays were determined by an MTT assay or by microscopic cell counting as indicated.
structure (smiles),measurement,setting,value
O.O.O.O.O.O.O.O.O.O=C([O-])[C@@H]1[O][Sb]2([O-])([O][Sb]34([OH])[O][C@H]([C@H](O)CO)[C@H]([O]3)[C@H](C(=O)[O-])[O]4)[O][C@H]([C@H](O)CO)[C@@H]1[O]2.[Na+].[Na+].[Na+] [sodium stibogluconate],Renca cell growth in culture,Renca cells,failed to inhibit Renca cell proliferation
same,induction of cellular protein tyrosine phosphorylation,"[1]; Baf3 deprived of IL-3, compared with pervanadate 0.1 mM",modest and transient
same,phosphotyrosine levels of Jak2 and Stat5 versus cells without drug,"[1]; IL-3 stimulated, densitometry",about twice
same,Jak2/Stat5 tyrosine phosphorylation by drug alone,"[1]; no IL-3, 16 hours at 37 °C",failed to induce Jak2/Stat5 tyrosine phosphorylation
same,toxicity in DU145 tumor mice,[2],no obvious toxicity
same,effect on IL-3-induced Baf3 growth,"Baf3 cells; 1,000 μg/ml",suppressed IL-3-induced Baf3 growth
same,proliferation and viability in the absence of IL-3,Baf3 cells; day 3 culture,failed to support cell proliferation or maintain cell viability
